The values below come from patent US6040293A, “Clavanins” (priority 1997, dated 2000).

Starred links: 1 amine or outer side, 2 acyl side, 3 side chain; linkers in the order of their positions; H or OH if unused. Non-standard residues stand in square brackets, D forms with d. No end group written: not given here. Tyr(Me) = O-methyl tyrosine, COc1ccc(C[C@H](N[*:1])C(=O)[*:2])cc1

Common to all, as to format: cell-based
The test system of experiment [1] is P. aeruginosa. Put plainly: standard underlay assay. The arrangement: dose or concentration left out as unconfirmed. The conditions noted are these: pH 7.4. Here is the method:
(§1) In more detail, the filtrates (≈3.5 mg of protein by BCA) were concentrated to 2 ml by vacuum centrifugation in a Speed Vac Concentrator (Savant Instruments, Hicksville, N.Y.). Gel permeation chromatography was performed on a 1.2×65 cm BioGel P-10 gel permeation column with 5% acetic acid. Preparative continuous acid-urea PAGE electrophoresis was performed as described by Harwig, S. S. L. et al., Anal Biochem (1993) 208:382. Active fractions were pooled and purified by RP-HPLC a 4.6×250 mm Vydac C18 column, using various linear gradients of acetonitrile in 0.1% trifluoroacetic acid (TFA) or 0.13% heptafluorobutyric acid (HFBA). Throughout this multistep procedure, fractions were lyophilized, concentrated and tested for antimicrobial activity against Listeria monocytogenes strain EGD by a radial diffusion technique described in Lehrer, R. I. et al., J Immunol Methods (1991) 137:167. In these assays, the underlay gels contained 9 mM sodium phosphate and 1 mM sodium citrate buffer, 0.30 mg/ml of trypticase soy broth powder (BBL, Cockeysville, Md.) and 1% agarose at a final pH of 6.5.
[…] The known antimicrobials cecropin A, cecropin B, and cecropin P1 were used as controls.
The standard underlay assay was again conducted supplying both E(3-23) and PG-1 to the underlay. […]

Experiment [2] concerns E. faecium. Put plainly: radial diffusion assay. The note with it: X-intercept of radial diffusion assay, pH 6.5. Here is the method:
as §1
(§2) In addition to Cecropin P1 and Magainin 1, the activity of Clavanin A(K) was also tested. Clavanin A(K) is identical to Clavanin A except that all of the histidine residues are replaced by lysine. […] The data are provided as minimal bacteriocidal concentrations expressed in μg/ml which are the X-intercepts of radial diffusion assays performed at pH 6.5 in an underlay that contained 10 mM buffer (9:1 citrate:phosphate), 1% agarose and 0.3 mg trypticase soy powder/ml.

For experiment [3], the system named is L. monocytogenes EGD. In words: radial diffusion assay. The conditions noted are these: for potency relative to Clavanins A and B: L. monocytogenes Strain EGD, radial diffusion (FIG. 5). The protocol: as §1, §2
The effect of pH on antimicrobial activity against several organisms was tested in a pH range wherein histidine becomes comparably charged to lysine. FIGS. 6-8 show the results for native or synthetic Clavanin A and synthetic Clavanin A(K) using defensin NP-2 as a control, with respect to L. monocytogenes, E. coli, and C. albicans respectively. The radial diffusion assays were conducted as described in Examples 1 and 3 above.

Experiment [4] relates to E. coli ML-35P. In words: radial diffusion assay. The note with it: radial diffusion (FIG. 5). Here is the method: as §1, §2
Experiment [5] deals with P. aeruginosa. In words: minimal bacteriocidal concentrations under various conditions. The arrangement: unit not given here. The conditions noted are these: pH 5.5. Here is the method: (§3) The Tables below show the minimal bacteriocidal concentrations of PG-1, histatin 5, and Clavanin E(3-23) against various organisms under various conditions. E(3-23) was active over a broad pH range and, unlike hisatin 5, it retained activity in the presence of physiological sodium chloride concentrations.
(§4) Low salt conditions (10 mM phosphate)
(§5) High salt conditions (10 mM phosphate+100 mM NaCl)

For experiment [6], the system named is E. coli. Described as above. Set-up: unit not given here. The conditions noted are these: pH 5.5. The protocol: as §3, §4, §5
Experiment [7] has as its system L. monocytogenes. Described as above. The conditions noted are these: pH 5.5. The protocol:
as §3, §4, §5

In experiment [8] the test system is C. albicans. Put plainly: minimal bacteriocidal concentrations and activity under various conditions. The conditions noted are these: pH 5.5. Here is the method: (§6) Finally, the activity of Clavanins A and E as well as E(3-23) and E(6-23) was tested against various target organisms at two pHs with and without salt.
as §3, §4, §5

The test system of experiment [9] is S. aureus. Here is the method:
as §1
(§7) Clavanin E(2-23) was tested in the standard underlay assay described in Example 1 herein wherein the underlay contained 10 mM sodium phosphate buffer, pH 7.4 and 1:100 trypticase soy broth with and without 200 mM NaCl. The known antimicrobials cecropin A, cecropin B, and cecropin P1 were used as controls.
(§8) The standard underlay assay was again conducted supplying both E(3-23) and PG-1 to the underlay. In these assays, the underlay contained in addition to 1% agarose, 10 mM sodium phosphate buffer, pH 7.4, 1:100 trypticase soy broth and 200 mM NaCl. The underlays contain PG-1 alone, E(3-23) alone, or combinations of E(3-23) and PG-1.
as §6

Experiment [10] deals with Burkaholderia cepacia. The protocol:
as §1, §7, §8

Experiment [11] deals with E. coli, L. monocytogenes, P. aeruginosa, S. areus and C. albicans. Put plainly: activity against various target organisms at two pHs with and without salt. The conditions noted are these: pH 5.5, 200 mM sodium chloride; most organisms (FIG. 13B). Here is the method: as §6
Where [12] appears, read: high salt (10 mM phosphate+100 mM NaCl).

Regarding Cecropin P1, the “activity, E(3-23) and cecropins compared” value in experiment [1] was “slightly more active than E(3-23)”. Also, in experiment [2], the minimal bacteriocidal concentration was found to be 6.5 µg/mL.

Turning to defensin NP-2, the “effect of pH of the assay on activity” value in [3] (L. monocytogenes, radial diffusion, pH 5.5, 6.5, 7.5 (FIG. 6)) is reported as “no effect”.

“cecropin A (KWKLFKKIEKVGQNIRDGIIKAGPAVAVVGQATQIAK; ends and bridges not checked; UniProt P01507 27-63, looked up) [known antimicrobial used as control]”: the “activity, E(3-23) and cecropins compared” value in [1] is recorded as “slightly more active than E(3-23)”.

Take “AFKLL GRIIH HVGNF VY' GFS HVF* (AFKLLGRIIHHVGNFV[Tyr(Me)]GFSHVF-NH2; also: C-terminal modification (*)) [Clavanin D, Y' is o-methyl tyrosine]”: the “potency relative to Clavanins A and B” value in [4] and in [3] was 3-5 fold in each case.

In the case of “VFHLL GKIIH HVGNF VY' GFS HVF* [Clavanin C, Y' is o-methyl tyrosine]”, the “potency relative to Clavanins A and B” value in experiment [4] and in experiment [3] was 3-5 fold throughout.

As for histatin 5 [Hs-5], the minimal bacteriocidal concentration in [5] (setting [12]) is reported as above 500; in [5] (low salt (10 mM phosphate)), 2.2; in experiment [6] (setting [12]) it was 60.6; in experiment [6] (low salt (10 mM phosphate)), 1.1; in experiment [7] (setting [12]), above 500; in experiment [7] (low salt (10 mM phosphate)), 11.8. For the same molecule, the values for the minimal bacteriocidal concentration in experiment [8] (setting [12]) and in [8] (low salt (10 mM phosphate)) were above 500 and 7.2, respectively.

Consider “KLLGKIIHHVGNFVHGFSHVF-NH2 [Clavanin E(3-23), KLL GKIIH HVGNF VHGFS HVF*]”, for which, in experiment [9] (pH 7.4), the “MBC of E(3-23) in the presence of PG-1” value came out at 2.5 µg/mL and the “minimum bacterial concentration (MBC), agent alone” value came to 7.5 µg/mL. Besides, in [10] (pH 7.4), the “MBC of E(3-23) with PG-1 incorporated” value was found to be 2.5 µg/mL and the “MBC, agent alone” value is 7.5 µg/mL.

For “LFKLLGKIIHHVGNFVHGFSHVF (LFKLLGKIIHHVGNFVHGFSHVF) [Clavanin E]”, the “effect of salt on activity” value is “maintained its activity” in experiment [9] (S. aureus, pH 5.5, 200 mM sodium chloride (FIG. 13B)) and “better maintained” in [11].

Take `CC(C)C[C@H](NC(=O)[C@H](CCCNC(=N)N)NC(=O)CNC(=O)CNC(=O)[C@@H](N)CCCNC(=N)N)C(=O)N[C@H]1CSSC[C@@H](C(=O)N[C@H](C(=O)NCC(=O)N[C@@H](CCCNC(=N)N)C(N)=O)C(C)C)NC(=O)[C@H](C(C)C)NC(=O)[C@@H]2CSSC[C@H](NC(=O)[C@H](Cc3ccc(O)cc3)NC1=O)C(=O)N[C@@H](CCCNC(=N)N)C(=O)N[C@@H](CCCNC(=N)N)C(=O)N[C@@H](CCCNC(=N)N)C(=O)N[C@@H](Cc1ccccc1)C(=O)N2` [PG-1]: the minimal bacteriocidal concentration amounted to 0.20 in [5] (setting [12]); 0.20 in [5] (low salt (10 mM phosphate)); 0.04 in [6] (setting [12]); 0.05 in experiment [6] (low salt (10 mM phosphate)); 0.10 in experiment [7] (setting [12]); 0.10 in [7] (low salt (10 mM phosphate)). Also, the minimal bacteriocidal concentration in experiment [8] (setting [12]) is 0.10; in experiment [8] (low salt (10 mM phosphate)), 0.06. In experiment [9] (pH 7.4), the “MBC for PG-1 in the presence of E(3-23)” value was 0.07 µg/mL. The “minimum bacterial concentration (MBC), agent alone” value in [9] (pH 7.4) is “approximately 0.9 μg/ml”. Besides, the “effect of E(3-23) on MBC for PG-1” value in experiment [10] (B. cepacia, pH 7.4, 200 mM NaCl, 1 μg/ml E(3-23) present) is “did not effect MBC”.
